The record followed here is USRE34918E, “Azaazulene compounds which are useful as antiallergic and antiinflammatory agents” (Kaken Pharmaceutical Co., Ltd., priority 1988, dated 1995).

SMILES strings stand for the structures.

Data set [1] deals with histamine release from rat mast cell. The data set is described as follows: Inhibitory activity against histamine release from rat mast cell. The conditions noted are these: 10 μg/ml, read-out: Inhibitory rate against histamine release. Type of data set: cell-based.
A further data set addresses T1, 5-lipoxygenase (Cavia porcellus, UniProt A0A286X958).
T1 construct: 5-lipoxygenase was prepared with polymorphonuclear leukocyte obtained from peritoneal cavity; endogenous in cells; host or cells: guinea pig peritoneal polymorphonuclear leukocytes (casein-elicited)
T1 sequence (A0A286X958 1-674): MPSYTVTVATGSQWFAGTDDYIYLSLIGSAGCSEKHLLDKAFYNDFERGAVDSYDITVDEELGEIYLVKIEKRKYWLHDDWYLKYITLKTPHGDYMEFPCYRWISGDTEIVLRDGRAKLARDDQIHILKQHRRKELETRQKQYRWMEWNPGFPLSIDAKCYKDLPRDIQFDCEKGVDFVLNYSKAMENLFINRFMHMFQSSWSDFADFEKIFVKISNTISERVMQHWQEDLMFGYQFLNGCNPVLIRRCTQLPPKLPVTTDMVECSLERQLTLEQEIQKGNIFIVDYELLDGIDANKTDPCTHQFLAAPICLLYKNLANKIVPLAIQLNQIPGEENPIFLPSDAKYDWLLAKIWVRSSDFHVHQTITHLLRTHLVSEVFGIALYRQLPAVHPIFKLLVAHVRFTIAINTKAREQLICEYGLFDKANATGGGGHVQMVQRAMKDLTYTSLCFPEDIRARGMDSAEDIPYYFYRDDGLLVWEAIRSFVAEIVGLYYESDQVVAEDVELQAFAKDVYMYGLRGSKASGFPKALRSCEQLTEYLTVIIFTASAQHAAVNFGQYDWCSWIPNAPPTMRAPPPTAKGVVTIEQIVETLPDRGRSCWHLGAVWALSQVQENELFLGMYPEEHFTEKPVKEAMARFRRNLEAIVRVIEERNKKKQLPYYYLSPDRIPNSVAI
The data set is described as follows: 5-lipoxygenase inhibiting activity in guinea pig. The note with it: read-out: Inhibition rate against 5-lipoxygenase activity. The class given is biochemical. The procedure: The test was carried out according to the method of Ochi [cf. J. Biol. Chem., 258, 5754-5758 (1983)]. Two % casein solution in saline was injected intraperitoneally into guinea pigs in an amount of 1/10 of body weight. After 16 hours, 5-lipoxygenase was prepared with polymorphonuclear leukocyte obtained from peritoneal cavity. Test compound and 5-lipoxygenase were pre-incubated at 30° C. for 10 minutes, CaCl2 (calcium chloride) and ^14 C-arachidonic acid were added thereto, and the resulting mixture was incubated for 20 minutes. A mixture of ethyl acetate/methanol/0.2M citric acid=30/4/1 (by volume) was added thereto to stop the reaction. After centrifugation, the organic solvent layer was spotted on a plate for thin layer chromatography and developed. Effect of the test compound was determined from the amount of ^14 C-5-hydroxyeicosatetraenoic acid (hereinafter referred to as "5-HETE") formed from ^14 C-arachidonic acid. Radioactivity of 5-HETE position was measured with a liquid scintillation counter.
Inhibition rate against 5-lipoxygenase activity was calculated according to the following equation.
Inhibition rate against 5-lipoxygenase activity [formula] A: Value of radioactivity in the control group B: Value of radioactivity in the test compound group
Each test compound was used in a concentration of 10 μM.

The nature of the next data set: Acute toxicity in mouse. The class given is in vivo. The conditions noted are these: 2 weeks observation. Here is the method: The test was carried out with the compounds obtained in Examples 5 and 9. Groups of 5 male ddy mice weighing 26 to 28 g were employed. The test compounds were suspended in a 0.5% CMC aqueous solution and the resulting suspension was administered orally in an amount of 500 for the compound obtained in Example 9, 1000 or 2000 mg/kg body weight. The survivors were kept under observation daily for 2 weeks. From the results shown in Table 6, the LD50 of the compounds obtained in Example 5 and 9 were estimated to be more than 2000 mg/kg. The other compounds of the present invention also had the same toxicity as the above compounds.

Data set [2] has as its system PCA (homologous passive cutaneous anaphylaxis) in rat. The data set can be described thus: Inhibitory activity against PCA in rat. Type of data set: in vivo, rat (male Slc: Wistar). The note with it: Rattus norvegicus; 5 mg/kg oral, 1 hour before antigen challenge; read-out: Inhibition rate against PCA. Here is the method: An anti-dinitrophenylated-ovalbumin (hereinafter referred to as "anti-DNP-OVA") rat antiserum having 800 of PCA titer in homologous passive cutaneous anaphylaxis reaction in rats for 48 hours, was diluted 200 times with physiological saline, and diluted antiserum was injected intradermally into back of groups of 5 male Slc: Wistar rats weighing 130-150 g in a volume of 50 μl/site to be passively sensitized. After 48 hours, 0.6 ml of 1% (w/v) Evans blue solution containing 1.5 mg of antigen DNP-OVA was administered intravenously into the tail. Thirty minutes later, the rats were bled to death and skin of the rats was removed. According to the method of Katayama et al [Microbiol. […] The test compound was suspended in 0.5% (w/v) aqueous solution of carboxymethylcellulose (hereinafter referred to as "CMC"), the suspension was administered orally in a ratio of 5 mg/kg 1 hour before challenging an antigen.
Inhibition rate against PCA was calculated according to the following equation. [formula] M: Amount of leaked pigment in antibody-sensitized site under administration of CMC without the test compound
S: Amount of leaked pigment in antibody-sensitized site under administration of the test compound in CMC
B: Amount of leaked pigment in antibody-nonsensitized site

Turning to `CC(C)c1cccc2n(Cc3ccc(F)cc3)c(=O)c(-c3nnn[nH]3)c-2c1` [Example 9, 1-(4-Fluorobenzyl)-5-iso-propyl-3-(5-tetrazolyl)-1-azaazulane-2-one], the inhibition at 10 µg/mL in data set [1] amounted to 99.8%. The inhibition at 10 µM at 5-lipoxygenase is -5.4%. In addition, the Mortality in “Acute toxicity in mouse” (500 mg/kg p.o.), in “Acute toxicity in mouse” (1000 mg/kg p.o.) and in the data set “Acute toxicity in mouse” (2000 mg/kg p.o.) was 0/5 in each case. For the same compound, the LD50 at 336 h in “Acute toxicity in mouse” (mouse, in vivo, oral) is over 2000 mg/kg. The inhibition in vivo at 5 mg/kg in data set [2] amounted to 84.9 ± 2.2%.
